Assay results from patent publication US7332475B2 (priority 2003, dated 2008).

Key:
BVDV(ATCC VR524) = test: Contact of BVDV with catechin (EGCg) before inoculation of MDBK cells, detection of BVDV-derived DNA by RT-PCR; format: cell-based, bovine viral diarrhea virus; details: 1 mg/ml catechin (EGCg), incubation 6 days
Protocol: The cells were washed three times with PBS, and 5% FBS-containing MEM was added thereto. Incubation was further conducted at 37° C. for 6 days.
After completion of the incubation, a DNA derived from BVDV in the MDBK cells was detected by RT-PCR to confirm whether or not the cells were infected with the virus.

BCV Kakegawa strain = test: Contact of BCV with catechin (EGCg) before inoculation of MDBK cells, TCID50 by cell denaturation effect; format: cell-based, bovine coronavirus; details: 1 mg/ml EGCg
Protocol: BCV Kakegawa strain with a 50% tissue culture infectious dose (TCID50) of 1.8×10^8/ml and 1 mg/ml of catechin (EGCg: procured from Pharma Foods International Co., Ltd.) were contacted at 25° C. or 37° C. for 30, 60 or 90 minutes respectively, and a 10-fold dilution series was then produced with MEM.
After the cells were washed three times with PBS, 5% FBS-containing MEM was added in an amount of 500 μl/well, and incubation was conducted for 72 hours. Subsequently, the cells infected with the virus were identified with a cell denaturation effect to measure TCID50.

[1] = test system: bovine coronavirus (BCV) Kakegawa strain and Mebus strain; details: 1, 5, 10, 20 or 30 mmol/l reduced glutathione; MDBK cells; supernatant at 24, 48, 72 and 96 hours; FIGS. 1 and 2
Protocol: Madin Darby Bovin Kidney (MDBK) cells (ATCC CCL-22) was incubated with a 48-well plate such that the cells were 90% confluent, and then washed twice with a phosphate buffered saline (PBS).
Each of bovine coronavirus (BCV) Kakegawa strain (procured from Nippon Zenyaku Kogyo Co., Ltd.) [2.56 to 256 hemagglutinin (HA) titer/25 μl] and Mebus strain (ATCC VR-874) (0.064 and 0.64 HA titers/25 μl) at various concentrations, these strains being diluted with fetal bovine serum (FBS)-free Minimum Essential Medium (MEM) [Science, 122, 501 (1952)], was inoculated in an amount of 200 μl/well, and incubated at 37° C. for 90 minutes while moving a plate at intervals of 15 minutes. After the culture solution was washed three times with PBS, 500 μl/well of 5% FBS-containing MEM containing 1, 5, 10, 20 or 30 mmol/l of reduced glutathione was added thereto, and the mixture was further incubated at 37° C. During the incubation, 100 μl of the supernatant was recovered in 24, 48, 72 and 96 hours to measure a hemagglutinin (HA) titer.
The HA titer was measured by adding 25 μl of PBS containing 0.03% BSA to each well, adding 25 μl of the BCV culture supernatant thereto by multiple dilution, adding 0.8% mouse immobilization red cells thereto and measuring an agglutination reaction of red cells after 3 hours. […]

**Q.** How did the “BVDV-derived DNA in MDBK cells by RT-PCR” value (BVDV(ATCC VR524); contact at 37° C. for 30, 60 or 90 minutes) turn out when `O=C(O[C@@H]1Cc2c(O)cc(O)cc2O[C@@H]1c1cc(O)c(O)c(O)c1)c1cc(O)c(O)c(O)c1` [EGCg, epigallocatechin gallate] was run?
**A.** became undetected depending on the catechin treatment time

**Q.** And the “BVDV-derived DNA in MDBK cells by RT-PCR” value (BVDV(ATCC VR524); contact at 37° C. for 90 minutes)?
**A.** not detected at all

**Q.** What about the “10^(n) TCID50/ml, EGCg-treated virus” value (BCV Kakegawa strain; contact 30 min, temperature cell empty (row between 25° C. and 37° C.), control 8.25) of the same molecule?
**A.** 4.25 10^(n) TCID50/ml

**Q.** What about the “10^(n) TCID50/ml, EGCg-treated virus” value (BCV Kakegawa strain; contact at 25° C. for 30 min, control 7.25) of the same molecule?
**A.** 5.75 10^(n) TCID50/ml

**Q.** What about the “10^(n) TCID50/ml, EGCg-treated virus” value (BCV Kakegawa strain; contact at 37° C. for 60 min, control 7.75) of the same molecule?
**A.** <2.75 10^(n) TCID50/ml

**Q.** What about the “10^(n) TCID50/ml, EGCg-treated virus” value (BCV Kakegawa strain; contact at 37° C. for 90 min, control 6.50) of the same molecule?
**A.** <2.00 10^(n) TCID50/ml

**Q.** Which “growth of coronavirus (hemagglutinin (HA) titer of culture supernatant)” value [1] does the source give for `N[C@@H](CCC(=O)N[C@@H](CS)C(=O)NCC(=O)O)C(=O)O` [reduced glutathione, γ-L-Glu-L-Cys-Gly] here?
**A.** effect of inhibiting growth of coronavirus
